# Experiments:
# [1] = method code SF, from DOI: 10.1016/j.ejps.2005.05.001, PMID: 15955679
Structure (SMILES),logP,further results
Cc1[nH]c(=O)c(C#N)cc1C(=O)OCC(C)C,1.78,–
CC(=O)c1ccc(=O)[nH]c1C,–,logD ([1]; pH 7.4): -0.3
CC(=O)c1ccc(-c2ccccc2)[nH]c1=O,–,logP [1]: 1.74
COC(=O)c1cc(C(C)=O)c(C)[nH]c1=O,-0.09,–
N#Cc1ccc(-c2ccncc2)[nH]c1=O,0.02,–
Cc1[nH]c(=O)c(C#N)cc1C(=O)O,0.15,–
O=c1[nH]c2c(cc1S(=O)(=O)c1ccccc1)CCCC2,–,logP [1]: 1.76
N#Cc1ccc(-c2ccccn2)[nH]c1=O,0.3,–
CCOC(=O)c1cc(C#N)c(=O)[nH]c1C,0.65,–
Cc1ccc(C#N)c(=O)[nH]1,-0.13,–
O=C(c1ccccc1)c1cc2c([nH]c1=O)CCCC2,–,logP [1]: 2.1
N#Cc1ccc(-c2cccnc2)[nH]c1=O,0.05,–
CC(=O)c1cc(C(=O)O)c(=O)[nH]c1C,-0.04,–

# From the SangsterLogP compilation
